Test results reported in US20220177484A1, “MACROCYCLES WITH ANTIOXIDANT AND NEUROPROTECTIVE ACTIVITIES” (INSTITUTO BIOMAR, S.A, priority 2019, published 2022).

Tests used:
C57BL6/J male mice [1] = experiment: Rotarod test under normal conditions; assay type: in vivo; conditions: once-daily 150 mg/kg intraperitoneal for 3 days, normal mice (FIG. 11)
Procedure: FIG. 11 represents the results from the rotarod test to 8 weeks-old C57BL6/J male mice separated in two groups: Control (mice injected with vehicle) and Compound I (mice injected with a once-daily dose of 150 mg/kg of Compound I).
(§1) Experiments were conducted to evaluate if the intraperitoneal administration of Compound I to mice would have any effect in the animal's motor coordination, fear/anxiety and short-term memory behaviour. The motivation for this experiment is to determine if, under normal conditions, the injection of compound I would affect the behaviour of 8 weeks-old C57BL6/J male mice, in vivo. Mice were separated in group I (vehicle injection only) and group II (compound I injection). The mice were injected with a once-daily dose of 150 mg/kg for 3 days. The tests consisted in the rotarod performance test (at day 1, 2, 3 and 4), the open field test (at day 2 and 3) and the novel object recognition test (at day 4 only).

[2] = Pharmacokinetics in plasma and brain after intraperitoneal administration; assay type: in vivo, female C57BL/6 mice; conditions: 150 mg/Kg intraperitoneal
Procedure: FIG. 10 represents the concentration of Compound I in plasma and brain of female C57BL/6 mice collected at t=0 min, 5 min, 15 min, 30 min, 1 hour, 4 hours, 10 hours, 24 hours and 48 hours.
The Maximum Tolerated Dose (MTD) and Pharmacokinetics (PK) of compound I were determined after intraperitoneal administration to female C57BL/6 (˜25 g) 9 weeks old mice. The injection comprised a 150 mg/Kg dose of compound I in Creomophor-EtOH-H2O (10:5:85). The concentrations of GKK1032C in plasma and brain were determined at different times per duplicate (pre-dose, 5 min, 15 min, 30 min, 1 h, 4 h, 10 h, 24 h and 48 h) using a previously validated analytical method. […] The highest concentration in the brain is 850 ng/mL at 4 hours after injection and progressively declined until reaching the control levels at 24 hours post-administration.

C57BL6/J male mice [3] = experiment: Novel Object Recognition test under normal conditions; assay type: in vivo; conditions: once-daily 150 mg/kg intraperitoneal for 3 days, test at day 4
Procedure: as §1

Which “motor coordination (rotarod)” value (C57BL6/J male mice [1]) does the source give for `C=CC1(C)C=C(C)C2C3C(Oc4ccc(cc4)CC4(O)NC(=O)C5(OC45)C(=O)C31)C1C(C)CC(C)CC21C` (stereo not drawn) [Compound I] here?
The value was “no effect”.

What about the “highest concentration in the plasma” value ([2]; Creomophor-EtOH-H2O (10:5:85), mice (FIG. 10)) of the same molecule?
Its value is 30000 ng/mL.

And the “crossing of the blood-brain barrier” value ([2]; mice)?
Its value is “successfully crosses the blood-brain barrier”.

What about the “duration of high levels in the brain” value ([2]; mice) of the same molecule?
The value was “about 18 hours”.

What about the “highest concentration in the brain” value ([2]; mice) of the same molecule?
Its value is 850 ng/mL.

And the “time at which brain concentration reaches the control levels post-administration” value ([2]; mice)?
Its value is 24 h.

And the “time of highest concentration in the brain after injection” value ([2]; mice)?
The value was 4 h.

And the “time of highest concentration in the plasma after injection” value ([2]; mice)?
The value was 4 h.

What about the “short-term memory (Novel Object Recognition)” value (C57BL6/J male mice [3]) of the same molecule?
Its value is “did not alter”.
